The supplement of paper PMC10307832

Tests used:
Test in all cases: relative viability (nuclei count vs DMSO), 5 days (fraction); higher = more cells survive
[1] = test system: ABC-1
Method in brief: (§1)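 Five library-drug doses in √10 steps were combined with a fixed anchor-drug dose, or a single drug was given alone, by pin tool to lung cancer cell lines in 1536-well plates the day after seeding. Nuclei were stained and counted after 5 days. Relative viability is the nuclei count in treated wells over that in vehicle wells, taken as the median of duplicate plates.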

[2] = test system: EPLC-272H
Method in brief: as §1

[3] = test system: NCI-H1355
Method in brief: as §1

[4] = test system: H3255
Method in brief: as §1

[5] = test system: COR-L 105
Method in brief: as §1

[6] = test system: NCI-H2085
Method in brief: as §1

[7] = test system: NCI-H322M
Method in brief: as §1

[8] = test system: NCI-H1975
Method in brief: as §1

[9] = test system: NCI-H2087
Method in brief: as §1

[10] = test system: HCC-366
Method in brief: as §1

[11] = test system: ChaGo-K-1
Method in brief: as §1

[12] = test system: CAL-12T
Method in brief: as §1

[13] = test system: NCI-H2009
Method in brief: as §1

[14] = test system: SK-MES-1
Method in brief: as §1

[15] = test system: NCI-H2228
Method in brief: as §1

[16] = test system: NCI-H441
Method in brief: as §1

[17] = test system: NCI-H1993
Method in brief: as §1

[18] = test system: EKVX
Method in brief: as §1

[19] = test system: NCI-H2342
Method in brief: as §1

[20] = test system: HCC-827
Method in brief: as §1

[21] = test system: NCI-H460
Method in brief: as §1

[22] = test system: NCI-H1792
Method in brief: as §1

In the case of CN1CCN(CCOc2cc(OC3CCOCC3)c3c(Nc4c(Cl)ccc5c4OCO5)ncnc3c2)CC1 [Saracatinib] + N=C(N)NC(=N)NCCc1ccccc1 [Phenformin] (partner 250 µM), the relative viability ([1]; first compound 0.02 µM) is reported as 0.251, the relative viability ([1]; first compound 0.2 µM) is reported as 0.238 and the relative viability ([1]; first compound 0.6325 µM) is reported as 0.231. It also gave a relative viability ([1]; first compound 2 µM) of 0.215, a relative viability ([2]; first compound 0.02 µM) of 0.285 and a relative viability ([2]; first compound 0.2 µM) of 0.327. It also gave a relative viability ([2]; first compound 0.6325 µM) of 0.319, a relative viability ([2]; first compound 2 µM) of 0.251 and a relative viability ([3]; first compound 0.02 µM) of 0.453. For the same molecule, the relative viability ([3]; first compound 0.2 µM) was 0.397, the relative viability ([3]; first compound 0.6325 µM) was 0.453 and the relative viability ([3]; first compound 2 µM) was 0.407. For the same molecule, the relative viability ([4]; first compound 0.02 µM) was 0.354, the relative viability ([4]; first compound 0.2 µM) was 0.33 and the relative viability ([4]; first compound 0.6325 µM) was 0.254. For the same molecule, the relative viability ([4]; first compound 2 µM) was 0.251, the relative viability ([5]; first compound 0.02 µM) was 0.586 and the relative viability ([5]; first compound 0.2 µM) was 0.532. For the same molecule, the relative viability ([5]; first compound 0.6325 µM) was 0.438, the relative viability ([5]; first compound 2 µM) was 0.256 and the relative viability ([6]; first compound 0.2 µM) was 0.694. It also gave a relative viability ([6]; first compound 0.6325 µM) of 0.809, a relative viability ([6]; first compound 2 µM) of 0.667 and a relative viability ([7]; first compound 0.02 µM) of 0.708. For the same molecule, the relative viability ([7]; first compound 0.2 µM) was 0.694, the relative viability ([7]; first compound 0.6325 µM) was 0.55 and the relative viability ([7]; first compound 2 µM) was 0.334. It also gave a relative viability ([8]; first compound 0.02 µM) of 0.422, a relative viability ([8]; first compound 0.2 µM) of 0.348 and a relative viability ([8]; first compound 0.6325 µM) of 0.387. It also gave a relative viability ([8]; first compound 2 µM) of 0.32, a relative viability ([9]; first compound 0.02 µM) of 0.484 and a relative viability ([9]; first compound 0.2 µM) of 0.39. For the same molecule, the relative viability ([9]; first compound 0.6325 µM) was 0.468, the relative viability ([9]; first compound 2 µM) was 0.355 and the relative viability ([10]; first compound 0.02 µM) was 0.694. It also gave a relative viability ([10]; first compound 0.6325 µM) of 0.599, a relative viability ([10]; first compound 2 µM) of 0.346 and a relative viability ([11]; first compound 0.02 µM) of 0.564. It also gave a relative viability ([11]; first compound 0.2 µM) of 0.314, a relative viability ([11]; first compound 0.6325 µM) of 0.447 and a relative viability ([11]; first compound 2 µM) of 0.381. The relative viability ([12]; first compound 0.02 µM) was 0.608, the relative viability ([12]; first compound 0.2 µM) was 0.639 and the relative viability ([12]; first compound 0.6325 µM) was 0.595. For the same molecule, the relative viability ([12]; first compound 2 µM) was 0.506, the relative viability ([13]; first compound 0.02 µM) was 0.45 and the relative viability ([13]; first compound 0.2 µM) was 0.428. It also gave a relative viability ([13]; first compound 0.6325 µM) of 0.389, a relative viability ([13]; first compound 2 µM) of 0.334 and a relative viability ([14]; first compound 0.02 µM) of 0.65. It also gave a relative viability ([14]; first compound 0.2 µM) of 0.613, a relative viability ([14]; first compound 0.6325 µM) of 0.613 and a relative viability ([14]; first compound 2 µM) of 0.634. For the same molecule, the relative viability ([15]; first compound 0.02 µM) was 0.345, the relative viability ([15]; first compound 0.2 µM) was 0.327 and the relative viability ([15]; first compound 0.6325 µM) was 0.346. It also gave a relative viability ([15]; first compound 2 µM) of 0.194, a relative viability ([16]; first compound 0.02 µM) of 0.768 and a relative viability ([16]; first compound 0.2 µM) of 0.733. The relative viability ([16]; first compound 0.6325 µM) was 1.17, the relative viability ([16]; first compound 2 µM) was 0.819 and the relative viability ([17]; first compound 0.02 µM) was 0.524. The relative viability ([17]; first compound 0.2 µM) was 0.529, the relative viability ([17]; first compound 0.6325 µM) was 0.512 and the relative viability ([17]; first compound 2 µM) was 0.555. The relative viability ([18]; first compound 0.02 µM) was 0.26, the relative viability ([18]; first compound 0.6325 µM) was 0.211 and the relative viability ([18]; first compound 2 µM) was 0.189. The relative viability ([19]; first compound 0.02 µM) was 0.702, the relative viability ([19]; first compound 0.2 µM) was 0.529 and the relative viability ([19]; first compound 0.6325 µM) was 0.673. The relative viability ([19]; first compound 2 µM) was 0.505, the relative viability ([20]; first compound 0.02 µM) was 0.4 and the relative viability ([20]; first compound 0.2 µM) was 0.221. The relative viability ([20]; first compound 0.6325 µM) was 0.134, the relative viability ([20]; first compound 2 µM) was 0.144 and the relative viability ([21]; first compound 0.02 µM) was 0.534. For the same molecule, the relative viability ([21]; first compound 0.2 µM) was 0.382, the relative viability ([21]; first compound 0.6325 µM) was 0.491 and the relative viability ([21]; first compound 2 µM) was 0.435. For the same molecule, the relative viability ([22]; first compound 0.02 µM) was 0.258, the relative viability ([22]; first compound 0.2 µM) was 0.167 and the relative viability ([22]; first compound 0.6325 µM) was 0.241. For the same molecule, the relative viability ([22]; first compound 2 µM) was 0.405.
